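Briefly, cells in 96-well plates were exposed to five compound concentrations for 48 h, and endpoints were estimated by linear interpolation. GI50: concentration for 50% inhibition of growth.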 Activity calls are given as the source filed them. No stated cut-off is given here; in the data, active = GI50 up to about 1.1 µM and inactive = higher. Non-standard residues stand in square brackets, D forms with d. Residues, ends and D or L forms follow the SMILES beside them. *: point of attachment. Ac5c = NC1(C(=O)O)CCCC1; Boc = CC(C)(C)OC(=O)*; tBu = CC(C)(C)*
Assays:
Experiment in all cases: NCI anticancer screen, dose series, 48 h
786-0 = system: 786-0
CAKI-1 = system: CAKI-1
COLO 205 = system: COLO 205
DU-145 = system: DU-145
HL-60 = system: HL-60
HT-29 = system: HT-29
Hs-578T = system: Hs-578T
IGROV-1 = system: IGROV-1
KM12 = system: KM12
M14 = system: M14
NCI/ADR-RES = system: NCI/ADR-RES
SF-295 = system: SF-295
SF-539 = system: SF-539
SNB-75 = system: SNB-75
U-251 = system: U-251
UACC-257 = system: UACC-257
UACC-62 = system: UACC-62
UO-31 = system: UO-31
SF-268 = system: SF-268

| Structure (SMILES) | GI50 (786-0) | GI50 (CAKI-1) | GI50 (COLO 205) | GI50 (DU-145) | GI50 (HL-60) | GI50 (HT-29) | GI50 (Hs-578T) | GI50 (IGROV-1) | GI50 (KM12) | GI50 (M14) | GI50 (NCI/ADR-RES) | GI50 (SF-295) | GI50 (SF-539) | GI50 (SNB-75) | GI50 (U-251) | GI50 (UACC-257) | GI50 (UACC-62) | GI50 (UO-31) | GI50 (SF-268) |
| --- | --- | --- | --- | --- | --- | --- | --- | --- | --- | --- | --- | --- | --- | --- | --- | --- | --- | --- | --- |
| CC(=O)NC1C(OCc2ccccc2)OC(CO)C(O)C1OCC(=O)N[C@@H](C)C(=O)N[C@H](CCC(=O)NCCNCCNc1c2ccccc2nc2cccc([N+](=O)[O-])c12)C(N)=O (stereo partly drawn) | 25.4 µM (inactive) | 22.6 µM (inactive) | 25 µM (inactive) | 36.6 µM (inactive) | 26.2 µM (inactive) | 23.6 µM (inactive) | 22.5 µM (inactive) | 8.87 µM (inactive) | 24.2 µM (inactive) | 56 µM (inactive) | > 100 µM (inactive) | 57.4 µM (inactive) | 33.3 µM (inactive) | 33.2 µM (inactive) | 34.3 µM (inactive) | 21.2 µM (inactive) | 17.7 µM (inactive) | 44.8 µM (inactive) | – |
| Cc1ccc2nc(-c3ccccc3)cc(=O)n2c1 | > 100 µM (inactive) | – | > 100 µM (inactive) | > 100 µM (inactive) | > 100 µM (inactive) | > 100 µM (inactive) | > 100 µM (inactive) | > 100 µM (inactive) | > 100 µM (inactive) | > 100 µM (inactive) | 69.7 µM (inactive) | > 100 µM (inactive) | > 100 µM (inactive) | > 100 µM (inactive) | > 100 µM (inactive) | > 10 µM (inactive) | > 100 µM (inactive) | – | > 100 µM (inactive) |
| Cc1ccc(S(=O)(=O)NC(=O)N[C@@H](Cc2c[nH]cn2)C(=O)O)cc1 | > 100 µM (inactive) | – | > 100 µM (inactive) | > 100 µM (inactive) | > 100 µM (inactive) | > 100 µM (inactive) | > 100 µM (inactive) | > 100 µM (inactive) | > 100 µM (inactive) | > 100 µM (inactive) | > 100 µM (inactive) | > 100 µM (inactive) | > 100 µM (inactive) | > 100 µM (inactive) | > 100 µM (inactive) | > 100 µM (inactive) | > 100 µM (inactive) | > 100 µM (inactive) | > 100 µM (inactive) |
| CCOC(=O)c1cc2cc3c4c(c2oc1=O)CCCN4CCC3 | 40 µM (inactive) | 47.3 µM (inactive) | 24.7 µM (inactive) | 31.6 µM (inactive) | 16.9 µM (inactive) | 31.8 µM (inactive) | 25 µM (inactive) | 27.2 µM (inactive) | 23.8 µM (inactive) | 32.3 µM (inactive) | 22.2 µM (inactive) | 40.4 µM (inactive) | 23.5 µM (inactive) | – | 28.8 µM (inactive) | 49.5 µM (inactive) | – | 25.9 µM (inactive) | 19.2 µM (inactive) |
| Nc1nc(NCC2(CO)CCC2)cc(=O)[nH]1 | > 100 µM (inactive) | > 100 µM (inactive) | > 100 µM (inactive) | > 100 µM (inactive) | > 100 µM (inactive) | > 100 µM (inactive) | > 100 µM (inactive) | > 100 µM (inactive) | > 100 µM (inactive) | > 100 µM (inactive) | > 100 µM (inactive) | > 100 µM (inactive) | – | > 100 µM (inactive) | > 100 µM (inactive) | > 100 µM (inactive) | > 100 µM (inactive) | > 100 µM (inactive) | > 100 µM (inactive) |
| CCn1nc2c3c(ncn3C(C)(C)O2)c1=O | > 100 µM (inactive) | > 100 µM (inactive) | > 100 µM (inactive) | > 100 µM (inactive) | > 100 µM (inactive) | > 100 µM (inactive) | > 100 µM (inactive) | > 100 µM (inactive) | > 100 µM (inactive) | > 100 µM (inactive) | > 100 µM (inactive) | > 100 µM (inactive) | – | – | > 100 µM (inactive) | > 100 µM (inactive) | > 100 µM (inactive) | > 100 µM (inactive) | > 100 µM (inactive) |
| CC(OC(C)(C)C)C1NC(=O)C(CCCCNC(=O)OC(C)(C)C)NC(=O)C(Cc2c[nH]c3ccccc23)NC(=O)C(Cc2ccccc2)NC(=O)C2(CCCC2)NC(=O)C(Cc2ccccc2)NC1=O (stereo not drawn) (cyclo([Ac5c]FWK(Boc)T(tBu)F); configuration not given here) | 16 µM (inactive) | 42.9 µM (inactive) | 20.4 µM (inactive) | 50.9 µM (inactive) | 17.5 µM (inactive) | 24 µM (inactive) | 33.3 µM (inactive) | 16.2 µM (inactive) | 29.4 µM (inactive) | 16.7 µM (inactive) | > 100 µM (inactive) | 29.9 µM (inactive) | 36.9 µM (inactive) | – | 15.8 µM (inactive) | 20.7 µM (inactive) | 21.6 µM (inactive) | – | 16.6 µM (inactive) |
| C[C@@H]1OC2(O)[C@@H]3CCCN3C(=O)N(Cc3ccccc3)N2C1=O (stereo partly drawn) | > 100 µM (inactive) | > 100 µM (inactive) | > 100 µM (inactive) | > 100 µM (inactive) | > 100 µM (inactive) | > 100 µM (inactive) | > 100 µM (inactive) | > 100 µM (inactive) | > 100 µM (inactive) | > 100 µM (inactive) | > 100 µM (inactive) | > 100 µM (inactive) | > 100 µM (inactive) | 0.331 µM (active) | – | > 100 µM (inactive) | > 100 µM (inactive) | – | > 100 µM (inactive) |
| CC#Cc1cc2c(cc1O)CC[C@@H]1[C@@H]2CC[C@]2(C)[C@@H](O)CC[C@@H]12 | 1.58 µM (inactive) | 0.766 µM (active) | 17.7 µM (inactive) | 3.43 µM (inactive) | 0.311 µM (active) | 13.8 µM (inactive) | 1.11 µM (active) | 4.54 µM (inactive) | 3.08 µM (inactive) | 0.521 µM (active) | 0.885 µM (active) | 0.406 µM (active) | – | 1.4 µM (inactive) | 0.748 µM (active) | 1.76 µM (inactive) | – | 9.23 µM (inactive) | 3.59 µM (inactive) |
| CN1CCN(Cc2ccc(C(=S)Nc3ccccc3)s2)CC1 | 31.9 µM (inactive) | > 100 µM (inactive) | 22.3 µM (inactive) | > 100 µM (inactive) | 19.9 µM (inactive) | 19.6 µM (inactive) | 39.2 µM (inactive) | 10.4 µM (inactive) | 36.3 µM (inactive) | 16.7 µM (inactive) | 32.9 µM (inactive) | 32.3 µM (inactive) | 82.4 µM (inactive) | – | 64.7 µM (inactive) | 33.5 µM (inactive) | 20.2 µM (inactive) | 36.3 µM (inactive) | > 100 µM (inactive) |
| Nc1ccccc1.O=P(O)(O)c1ccccc1 | > 100 µM (inactive) | > 100 µM (inactive) | > 100 µM (inactive) | > 100 µM (inactive) | > 100 µM (inactive) | > 100 µM (inactive) | > 100 µM (inactive) | > 100 µM (inactive) | > 100 µM (inactive) | > 100 µM (inactive) | > 100 µM (inactive) | > 100 µM (inactive) | – | 17.6 µM (inactive) | > 100 µM (inactive) | > 100 µM (inactive) | > 100 µM (inactive) | > 100 µM (inactive) | > 100 µM (inactive) |
| Cc1c(-c2ccccc2)c(C#N)c2nnc(C(N)=O)c(N)n12 | > 100 µM (inactive) | > 100 µM (inactive) | > 100 µM (inactive) | > 100 µM (inactive) | > 100 µM (inactive) | > 100 µM (inactive) | > 100 µM (inactive) | > 100 µM (inactive) | > 100 µM (inactive) | > 100 µM (inactive) | > 100 µM (inactive) | > 100 µM (inactive) | > 100 µM (inactive) | – | > 100 µM (inactive) | > 100 µM (inactive) | > 100 µM (inactive) | > 100 µM (inactive) | > 100 µM (inactive) |
| COc1cc(CNC(=O)CCCCCCCCCCSC#N)ccc1O | 17.8 µM (inactive) | 18.2 µM (inactive) | 30.3 µM (inactive) | 17.8 µM (inactive) | 5.69 µM (inactive) | 31.9 µM (inactive) | 14.2 µM (inactive) | 4.59 µM (inactive) | 5.83 µM (inactive) | 7.38 µM (inactive) | 17.1 µM (inactive) | 19.1 µM (inactive) | 18 µM (inactive) | 11 µM (inactive) | 16.8 µM (inactive) | 21 µM (inactive) | 5.41 µM (inactive) | 3.52 µM (inactive) | – |
| O=C1/C(=C/c2ccc(Br)s2)NC(=S)N1CN1CCCCC1 | 36.4 µM (inactive) | 32.4 µM (inactive) | 18.1 µM (inactive) | 38.1 µM (inactive) | 15.4 µM (inactive) | 33.2 µM (inactive) | 51.4 µM (inactive) | 42.1 µM (inactive) | 35.6 µM (inactive) | – | 28.8 µM (inactive) | 30.5 µM (inactive) | – | 44.6 µM (inactive) | 28.8 µM (inactive) | 33.3 µM (inactive) | 26.6 µM (inactive) | 24.5 µM (inactive) | 39.4 µM (inactive) |
| C/C=C1/CC(C)C(C)(O)C(=O)OCC2C(O)CN3CCC(OC1=O)C23 (stereo not drawn) | > 100 µM (inactive) | > 100 µM (inactive) | > 100 µM (inactive) | > 100 µM (inactive) | > 100 µM (inactive) | > 100 µM (inactive) | > 100 µM (inactive) | > 100 µM (inactive) | > 100 µM (inactive) | > 100 µM (inactive) | > 100 µM (inactive) | > 100 µM (inactive) | > 100 µM (inactive) | > 100 µM (inactive) | > 100 µM (inactive) | > 100 µM (inactive) | > 100 µM (inactive) | – | > 100 µM (inactive) |

From ChEMBL document CHEMBL1201862, “PubChem BioAssay data set” (2004)
